Measurements as given in the NIST ThermoML archive (doi:10.1021/acs.jced.5b00980).
Numbers after ± are expanded uncertainties.

Experiment: activity coefficient (dimensionless); of the first substance listed, at infinite dilution; xn = mol fraction of the nth substance listed
Settings: 100 kPa, Liquid, Chromatography, x1 = 0

SMILES | activity coefficient (328.15 K) | activity coefficient (338.15 K) | activity coefficient (348.15 K) | activity coefficient (358.15 K) | activity coefficient (368.15 K)
Cc1ccccc1C [1,2-dimethylbenzene] + CCCC[P+](CC)(CCCC)CCCC.CCOP(=O)([O-])OCC | 1.55 ± 0.1 | 1.52 ± 0.1 | 1.5 ± 0.1 | 1.47 ± 0.1 | 1.45 ± 0.1
Cc1cccc(C)c1 [1,3-dimethylbenzene] + CCCC[P+](CC)(CCCC)CCCC.CCOP(=O)([O-])OCC | 1.7 ± 0.11 | 1.67 ± 0.11 | 1.64 ± 0.11 | 1.61 ± 0.11 | 1.59 ± 0.11
Cc1ccc(C)cc1 [1,4-dimethylbenzene] + CCCC[P+](CC)(CCCC)CCCC.CCOP(=O)([O-])OCC | 1.64 ± 0.11 | 1.61 ± 0.11 | 1.59 ± 0.11 | 1.57 ± 0.1 | 1.55 ± 0.1
C1COCCO1 [1,4-dioxane] + CCCC[P+](CC)(CCCC)CCCC.CCOP(=O)([O-])OCC | 1.08 ± 0.07 | 1.06 ± 0.07 | 1.05 ± 0.07 | 1.03 ± 0.06 | 1.02 ± 0.06
C=CCCCCCCCC [1-decene] + CCCC[P+](CC)(CCCC)CCCC.CCOP(=O)([O-])OCC | 5.2 ± 0.35 | 5.06 ± 0.34 | 4.93 ± 0.34 | 4.81 ± 0.33 | 4.69 ± 0.32
C=CCCCCC [1-heptene] + CCCC[P+](CC)(CCCC)CCCC.CCOP(=O)([O-])OCC | 3.06 ± 0.21 | 3.01 ± 0.2 | 2.97 ± 0.2 | 2.93 ± 0.2 | 2.89 ± 0.2
C#CCCCCC [1-heptyne] + CCCC[P+](CC)(CCCC)CCCC.CCOP(=O)([O-])OCC | 1.01 ± 0.06 | 1.05 ± 0.07 | 1.09 ± 0.07 | 1.13 ± 0.07 | 1.17 ± 0.07
C#CCCCC [1-hexyne] + CCCC[P+](CC)(CCCC)CCCC.CCOP(=O)([O-])OCC | 0.849 ± 0.054 | 0.893 ± 0.057 | 0.936 ± 0.059 | 0.979 ± 0.061 | 1.02 ± 0.06
CCC[N+](=O)[O-] [1-nitropropane] + CCCC[P+](CC)(CCCC)CCCC.CCOP(=O)([O-])OCC | 0.499 ± 0.038 | 0.507 ± 0.038 | 0.515 ± 0.038 | 0.523 ± 0.039 | 0.53 ± 0.039
C#CCCCCCC [1-octyne] + CCCC[P+](CC)(CCCC)CCCC.CCOP(=O)([O-])OCC | 1.17 ± 0.07 | 1.22 ± 0.08 | 1.28 ± 0.08 | 1.33 ± 0.09 | 1.38 ± 0.09
C=CCCC [1-pentene] + CCCC[P+](CC)(CCCC)CCCC.CCOP(=O)([O-])OCC | 2.18 ± 0.15 | 2.15 ± 0.15 | 2.13 ± 0.14 | 2.11 ± 0.14 | 2.09 ± 0.14
C#CCCC [1-pentyne] + CCCC[P+](CC)(CCCC)CCCC.CCOP(=O)([O-])OCC | 0.725 ± 0.048 | 0.762 ± 0.05 | 0.797 ± 0.052 | 0.833 ± 0.054 | 0.866 ± 0.055
CC(C)CC(C)(C)C [2,2,4-trimethylpentane] + CCCC[P+](CC)(CCCC)CCCC.CCOP(=O)([O-])OCC | 4.38 ± 0.3 | 4.25 ± 0.29 | 4.15 ± 0.28 | 4.05 ± 0.28 | 3.97 ± 0.27
CCC(C)(C)C [2,2-dimethylbutane] + CCCC[P+](CC)(CCCC)CCCC.CCOP(=O)([O-])OCC | 3.34 ± 0.23 | 3.27 ± 0.22 | 3.2 ± 0.22 | 3.14 ± 0.21 | 3.08 ± 0.21
CCOC(C)(C)C [2-ethoxy-2-methylpropane] + CCCC[P+](CC)(CCCC)CCCC.CCOP(=O)([O-])OCC | 2.66 ± 0.18 | 2.6 ± 0.18 | 2.56 ± 0.17 | 2.51 ± 0.17 | 2.47 ± 0.17
CCCCC(C)=O [2-hexanone] + CCCC[P+](CC)(CCCC)CCCC.CCOP(=O)([O-])OCC | 1.15 ± 0.07 | 1.15 ± 0.07 | 1.15 ± 0.07 | 1.15 ± 0.07 | 1.14 ± 0.07
CCC(C)(C)OC [2-methoxy-2-methylbutane] + CCCC[P+](CC)(CCCC)CCCC.CCOP(=O)([O-])OCC | 2.09 ± 0.14 | 2.07 ± 0.14 | 2.05 ± 0.14 | 2.02 ± 0.14 | 2.01 ± 0.14
COC(C)(C)C [2-methoxy-2-methylpropane] + CCCC[P+](CC)(CCCC)CCCC.CCOP(=O)([O-])OCC | 1.89 ± 0.13 | 1.86 ± 0.13 | 1.84 ± 0.12 | 1.82 ± 0.12 | 1.8 ± 0.12
CCCC(=O)CC [3-hexanone] + CCCC[P+](CC)(CCCC)CCCC.CCOP(=O)([O-])OCC | 1.23 ± 0.08 | 1.21 ± 0.08 | 1.21 ± 0.08 | 1.2 ± 0.08 | 1.2 ± 0.08
CCC(C)CC [3-methylpentane] + CCCC[P+](CC)(CCCC)CCCC.CCOP(=O)([O-])OCC | 3.17 ± 0.22 | 3.12 ± 0.21 | 3.07 ± 0.21 | 3.02 ± 0.21 | 2.98 ± 0.2

SMILES | activity coefficient (328.15 K) | activity coefficient (338.15 K) | activity coefficient (348.15 K) | activity coefficient (358.15 K) | activity coefficient (368.15 K)
CC(C)=O [acetone] + CCCC[P+](CC)(CCCC)CCCC.CCOP(=O)([O-])OCC | 0.835 ± 0.054 | 0.827 ± 0.053 | 0.822 ± 0.053 | 0.814 ± 0.053 | 0.809 ± 0.052
CC#N [acetonitrile] + CCCC[P+](CC)(CCCC)CCCC.CCOP(=O)([O-])OCC | 0.464 ± 0.036 | 0.465 ± 0.036 | 0.467 ± 0.036 | 0.468 ± 0.037 | 0.469 ± 0.037
c1ccccc1 [benzene] + CCCC[P+](CC)(CCCC)CCCC.CCOP(=O)([O-])OCC | 0.871 ± 0.056 | 0.863 ± 0.055 | 0.855 ± 0.055 | 0.847 ± 0.054 | 0.84 ± 0.054
C1CCCCCC1 [cycloheptane] + CCCC[P+](CC)(CCCC)CCCC.CCOP(=O)([O-])OCC | 2.48 ± 0.17 | 2.42 ± 0.16 | 2.37 ± 0.16 | 2.32 ± 0.16 | 2.27 ± 0.15
C1CCCCC1 [cyclohexane] + CCCC[P+](CC)(CCCC)CCCC.CCOP(=O)([O-])OCC | 2.17 ± 0.15 | 2.13 ± 0.14 | 2.09 ± 0.14 | 2.05 ± 0.14 | 2.01 ± 0.14
C1=CCCCC1 [cyclohexene] + CCCC[P+](CC)(CCCC)CCCC.CCOP(=O)([O-])OCC | 1.72 ± 0.12 | 1.69 ± 0.11 | 1.67 ± 0.11 | 1.65 ± 0.11 | 1.63 ± 0.11
C1CCCCCCC1 [cyclooctane] + CCCC[P+](CC)(CCCC)CCCC.CCOP(=O)([O-])OCC | 2.82 ± 0.19 | 2.74 ± 0.19 | 2.69 ± 0.18 | 2.63 ± 0.18 | 2.57 ± 0.17
C1CCCC1 [cyclopentane] + CCCC[P+](CC)(CCCC)CCCC.CCOP(=O)([O-])OCC | 1.83 ± 0.12 | 1.8 ± 0.12 | 1.77 ± 0.12 | 1.74 ± 0.12 | 1.71 ± 0.11
CCCCCCCCCC [decane] + CCCC[P+](CC)(CCCC)CCCC.CCOP(=O)([O-])OCC | 7.01 ± 0.48 | 6.74 ± 0.46 | 6.49 ± 0.44 | 6.26 ± 0.43 | 6.05 ± 0.41
CCOCC [diethyl ether] + CCCC[P+](CC)(CCCC)CCCC.CCOP(=O)([O-])OCC | 1.79 ± 0.12 | 1.77 ± 0.12 | 1.75 ± 0.12 | 1.73 ± 0.12 | 1.71 ± 0.11
CC(C)OC(C)C [diisopropyl ether] + CCCC[P+](CC)(CCCC)CCCC.CCOP(=O)([O-])OCC | 2.82 ± 0.19 | 2.75 ± 0.19 | 2.69 ± 0.18 | 2.65 ± 0.18 | 2.59 ± 0.18
CCCOCCC [dipropyl ether] + CCCC[P+](CC)(CCCC)CCCC.CCOP(=O)([O-])OCC | 2.59 ± 0.18 | 2.55 ± 0.17 | 2.51 ± 0.17 | 2.47 ± 0.17 | 2.43 ± 0.17
CCO [ethanol] + CCCC[P+](CC)(CCCC)CCCC.CCOP(=O)([O-])OCC | – | 0.035 | 0.038 | 0.042 | 0.045
CCc1ccccc1 [ethylbenzene] + CCCC[P+](CC)(CCCC)CCCC.CCOP(=O)([O-])OCC | 1.55 ± 0.1 | 1.52 ± 0.1 | 1.49 ± 0.1 | 1.46 ± 0.1 | 1.44 ± 0.09
CCCCCCC [heptane] + CCCC[P+](CC)(CCCC)CCCC.CCOP(=O)([O-])OCC | 4.08 ± 0.28 | 3.97 ± 0.27 | 3.87 ± 0.26 | 3.78 ± 0.26 | 3.7 ± 0.25
C=CCCCC [hex-1-ene] + CCCC[P+](CC)(CCCC)CCCC.CCOP(=O)([O-])OCC | 2.59 ± 0.18 | 2.54 ± 0.17 | 2.49 ± 0.17 | 2.44 ± 0.17 | 2.4 ± 0.16
CCCCCC [hexane] + CCCC[P+](CC)(CCCC)CCCC.CCOP(=O)([O-])OCC | 3.4 ± 0.23 | 3.33 ± 0.23 | 3.26 ± 0.22 | 3.21 ± 0.22 | 3.15 ± 0.21
CO [methanol] + CCCC[P+](CC)(CCCC)CCCC.CCOP(=O)([O-])OCC | – | 0.022 | 0.025 | 0.028 | 0.03
CC1CCCCC1 [methylcyclohexane] + CCCC[P+](CC)(CCCC)CCCC.CCOP(=O)([O-])OCC | 2.62 ± 0.18 | 2.57 ± 0.17 | 2.52 ± 0.17 | 2.48 ± 0.17 | 2.44 ± 0.17
